In ChEMBL document CHEMBL1667742, “Angiotensin II receptor type 1 (AT1) selective nonpeptidic antagonists--a perspective” (Bioorg Med Chem, 2010):
Positions count from the first letter of the chain named. Blank lines part the entries; values can stand above or below the molecule they belong to.

Columns and labels:
[1] = Oral bioavailability in rat; assay type: ADME, organism-based; conditions: in vivo
[2] = organism: Rattus norvegicus; assay: Antihypertensive activity in renal hypertensive rat model assessed as reduction of blood pressure; assay type: functional
[3] = target: T1, Type-1 angiotensin II receptor (Oryctolagus cuniculus, UniProt P34976); assay: (§1) Antagonist activity at angiotensin AT1 receptor in rabbit aorta; assay type: functional, tissue-based
T1 sequence (P34976 whole entry): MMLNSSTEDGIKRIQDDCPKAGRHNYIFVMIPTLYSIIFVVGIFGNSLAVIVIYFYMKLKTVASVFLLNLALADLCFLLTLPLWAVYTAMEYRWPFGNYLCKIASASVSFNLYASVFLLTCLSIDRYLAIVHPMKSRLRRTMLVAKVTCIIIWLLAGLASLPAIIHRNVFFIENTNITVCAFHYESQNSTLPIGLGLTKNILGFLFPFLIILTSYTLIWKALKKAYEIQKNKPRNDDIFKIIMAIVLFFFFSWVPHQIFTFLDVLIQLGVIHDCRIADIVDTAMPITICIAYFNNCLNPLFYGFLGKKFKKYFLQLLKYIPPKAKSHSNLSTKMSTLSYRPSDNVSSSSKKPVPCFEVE

[4] = Binding affinity to angiotensin AT1 receptor in rat cortical membranes; assay type: cell membranes
[5] = test system: Rattus norvegicus; assay: Antihypertensive activity in po dosed renal hypertensive rat model assessed as reduction of angiotensin 2-induced blood pressure up to 24 hrs; assay type: functional
[6] = test system: Rattus norvegicus; assay: Antihypertensive activity in renal hypertensive rat model assessed as reduction of mean arterial blood pressure at 30 mg/kg, po; assay type: functional, Artery; design: scale not given: the % may be the effect or the level left
[7] = target: T2, Type-1 angiotensin II receptor (Oryctolagus cuniculus) (UniProt P34976); assay: as §1; assay type: functional, tissue-based
T2 sequence (whole entry): T1 sequence (P34976 whole entry)

[8] = test system: Rhesus monkey; assay: Antihypertensive activity in salt depleted normotensive monkey model assessed as reduction of blood pressure at 10 mg/kg, po; assay type: functional, Macaca mulatta; design: scale not given: the % may be the effect or the level left
[9] = test system: Rattus norvegicus; assay: Antihypertensive activity in renal hypertensive rat model assessed as reduction of mean arterial blood pressure at 10 mg/kg, po; assay type: functional, Artery; design: scale not given: the % may be the effect or the level left
[10] = Antagonist activity at angiotensin AT1 receptor in rat mesenteric artery; assay type: functional
[11] = target: T3, Type-1 angiotensin II receptor (Homo sapiens) (UniProt P30556); assay: Binding affinity to angiotensin AT1 receptor
T3 sequence (whole entry): T1 sequence (P34976 whole entry) with M2I, A49V, V254I, V270I, H272R, K311R, S349T, V353A

[12] = target: T4, Type-1 angiotensin II receptor (Cavia porcellus, UniProt Q9WV26); assay: Antagonist activity at angiotensin AT1 receptor in guinea pig ileum; assay type: functional, tissue-based; conditions: read-out: pA2 (converted)
T4 sequence (Q9WV26 whole entry): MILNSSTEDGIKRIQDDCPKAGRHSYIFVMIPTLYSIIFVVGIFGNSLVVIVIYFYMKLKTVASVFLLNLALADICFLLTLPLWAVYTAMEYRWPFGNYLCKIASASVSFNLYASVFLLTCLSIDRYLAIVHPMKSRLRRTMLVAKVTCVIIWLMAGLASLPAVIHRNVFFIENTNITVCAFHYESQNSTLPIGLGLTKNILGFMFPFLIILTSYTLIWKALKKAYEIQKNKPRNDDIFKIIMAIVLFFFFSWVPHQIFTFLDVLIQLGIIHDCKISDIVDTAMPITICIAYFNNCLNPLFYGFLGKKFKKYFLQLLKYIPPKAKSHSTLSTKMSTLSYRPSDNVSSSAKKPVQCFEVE

[13] = test system: Rattus norvegicus; assay: Antihypertensive activity in iv dosed renal hypertensive rat model; assay type: functional; conditions: read-out: ED50
[14] = Antagonist activity at angiotensin AT1 receptor in rat adrenal cortical membranes; assay type: functional, cell membranes
[15] = Antagonist activity at angiotensin AT1 receptor in rat kidney homogenates; assay type: functional, tissue-based
[16] = Displacement of radiolabeled angiotensin2 from angiotensin AT1 receptor in rat adrenal cortex membranes; assay type: cell membranes, Membrane
[17] = Displacement of radiolabeled angiotensin2 from angiotensin AT1 receptor in rat vascular smooth muscle
[18] = Binding affinity to angiotensin AT1 receptor in rat liver membranes; assay type: cell membranes, Membrane
[19] = test system: Rattus norvegicus; assay: Antihypertensive activity in po dosed renal hypertensive rat model; assay type: functional; conditions: read-out: ED50
[20] = target: T5, Type-1 angiotensin II receptor (Bos taurus) (UniProt P25104); assay: Binding affinity to angiotensin AT1 receptor in bovine adrenal cortex membranes; assay type: cell membranes; conditions: Membrane
T5 sequence (whole entry): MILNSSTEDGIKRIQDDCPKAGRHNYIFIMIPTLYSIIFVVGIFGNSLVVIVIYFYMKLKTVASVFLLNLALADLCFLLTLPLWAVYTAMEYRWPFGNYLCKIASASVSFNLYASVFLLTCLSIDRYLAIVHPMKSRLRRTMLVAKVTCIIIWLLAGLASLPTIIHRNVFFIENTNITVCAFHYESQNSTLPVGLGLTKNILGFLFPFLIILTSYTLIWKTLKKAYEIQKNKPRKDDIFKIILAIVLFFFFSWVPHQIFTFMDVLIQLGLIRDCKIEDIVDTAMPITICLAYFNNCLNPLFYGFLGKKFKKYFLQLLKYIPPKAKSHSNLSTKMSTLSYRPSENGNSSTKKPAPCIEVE

[21] = test system: Rattus norvegicus; assay: Antihypertensive activity in po dosed conscious goldblatt hypertensive rat model assessed as reduction of angiotensin 2-induced mean arterial blood pressure; assay type: functional; conditions: Artery
[22] = (§2) Antagonist activity at angiotensin AT1 receptor in rat liver membranes; assay type: functional, cell membranes, Membrane
[23] = Half life in rat; assay type: ADME, organism-based; conditions: in vivo
[24] = test system: Rattus norvegicus; assay: Antihypertensive activity in furosemide-treated sodium depleted rat model assessed as reduction of blood pressure at 3 mg/kg, po; assay type: functional
[25] = test system: Rattus norvegicus; assay: Antihypertensive activity in furosemide-treated sodium depleted rat model assessed as reduction of blood pressure at 10 mg/kg, po; assay type: functional
[26] = organism: Rattus norvegicus; assay: as §2; assay type: functional, cell membranes; conditions: Membrane
[27] = target: T1, Type-1 angiotensin II receptor; assay: Antagonist activity at angiotensin AT1 receptor in rabbit aortic strip assessed as inhibition of angiotensin 2-induced contractile response; assay type: functional; conditions: read-out: pA2 (converted)
[28] = Binding affinity to angiotensin AT1 receptor in bovine adrenal cortex membranes

bioavailability [1]: 94%
Structure (SMILES): CCc1nc2c(C)cc(C)nc2n1Cc1ccc2nc(-c3ccccc3NS(=O)(=O)C(F)(F)F)ccc2c1 [GA0113]
ED25 [2]: 0.015 mg/kg

IC50 [3]: 0.2 nM
IC50 [4]: 0.7 nM
Structure (SMILES): CCCCc1nc2ccn(CC(=O)N(C)C)c(=O)c2n1Cc1ccc(-c2ccccc2-c2nnn[nH]2)cc1

Structure (SMILES): CCc1cc2c(c(CC)n1)CCC(=O)N2Cc1ccc(-c2ccccc2-c2nnn[nH]2)cc1
ED50 [5]: 3 mg/kg

Activity [7]: 3.8 nM
Structure (SMILES): CCCCc1ncc(/C=C2/C(=O)N(CCCC)C(=O)N2Cc2csc(C)n2)n1Cc1ccc(C(=O)OC)cc1
Activity [6]: 40%
Activity [8]: 27%
Activity [9]: 25%

IC50 [10]: 1.3 nM
pKb [11]: 10.6
Structure (SMILES): CCCCc1nc2c(n1Cc1ccc(-c3ccccc3-c3nnn[nH]3)cc1)C(=O)N1C3CCC(CC3)N1C2

Kb [12]: 15.8 nM
Structure (SMILES): CCCc1nc2cc(C(=O)OC)[nH]c2n1Cc1ccc(-c2ccccc2C(=O)O)cc1

IC50 [14]: 0.82 nM
pA2 [15]: 7.8
IC50 [16]: 19 nM
IC50 [17]: 20 nM
IC50 [18]: 6.7 nM
Activity [20]: 11.6 nM
Structure (SMILES): CCCCc1nc(Cl)c(CO)n1Cc1ccc(-c2ccccc2-c2nnn[nH]2)cc1 [LOSARTAN]
ED50 [13]: 0.78 mg/kg
ED50 [19]: 0.59 mg/kg

IC50 [22]: 5.2 nM
Structure (SMILES): Cc1nc(C)c2c(n1)N(Cc1ccc(-c3ccccc3-c3nnn[nH]3)cc1)C(=O)CC2 [TASOSARTAN]
ED50 [21]: 0.58 mg/kg

half-life [23]: 9.1 h
Activity [26]: 0.069 µM
bioavailability [1]: 91%
Structure (SMILES): CCc1nc2c(C)cc(C)nc2n1Cc1cccc([C@@H](c2ccccc2)[C@@H](C)C(=O)O)c1
Activity [24]: 24 mmHg
Activity [25]: 39 mmHg

Kb [27]: 0.631 nM
IC50 [28]: 11 nM
Structure (SMILES): CCc1nc2c(C)cc(C)nc2n1Cc1ccc2c(c1)C(Cc1nnn[nH]1)c1ccccc1-2 (centres undefined)
